Where a SMILES comes first, the peptide text is derived from it. The star is where a group is joined. Cbz = O=C(OCc1ccccc1)*
Columns and labels:
[1] = target: T1, proteasome (Saccharomyces cerevisiae, UniProt P23724+P30656); test: Suppression of damage-induced histone degradation by proteasome inhibition; format: cell-based; details: Zeocin-damaged cells
T1 construct: endogenous in cells; host or cells: Saccharomyces cerevisiae (budding yeast) cells treated with Zeocin

[2] = test system: S phase chromatin; test: Super-resolution microscopy of TetR-mCherry tagged locus 3D volume (chromatin expansion); format: cell-based, Saccharomyces cerevisiae; details: cells fixed 30 min after exposure to different amounts of Zeocin
Source text: Structured illumination images were acquired on a Zeiss Elyra S.1 microscope with a Andor iXon 885 EMCCD camera using a HR diode 488 […] solid state laser, BP 525-580+LP 750 filter and a PLAN-APOCHROMAT 63×N.A. 1.4 oil DIC objective lens. Cells were first fixed in PFA 4%, washed 3 times in PBS and then attached to a thin SIM grade Zeiss 1.5 glass coverslip using Concanavalin A. Cells were fully sectioned by 50-65 slices with […] intervals taken at 60 ms exposures per slice using 5 rotations of the illumination grid. Brightfield images of the cells were also acquired using an X-Cite PC 120 EXFO Metal Halide lamp. Zen Black was used to process the images using automatic settings with the Raw Scale option selected. 3D stacks were then analyzed by using pixel classification and a custom Matlab script to determine the spot volumes and other features as follows. […] Features calculated at the labeled pixels and their local neighborhood are then used to train a pixel classifier based on a Random Forest ensemble learning method. […] Finally, the program generates an ascii file where the key features like volume and solidity 3D and descriptive statistics are listed for all detected nuclei and foci. The solidity factor is calculated as the proportion of pixels in the 3D convex hull. […]

[3] = test system: Histone H3 (H3-CFP); test: Time-lapse live cell tracking of H3-CFP in microfluidic chambers; format: cell-based, Saccharomyces cerevisiae
Procedure: For H3-CFP (Strain GA-3364 and derivatives) and 2-foci (Strain GA-9777) live cell fluorescent microscopy, LOG phase cells were trapped with 3 pulses of 5 psi pressure in CellASIC plates of the ONIX microfluidic perfusion system (Merck Millipore). All perfusions were done at a continuous flow rate of 2 psi pressure. After a 20-30 minute recovery phase, cells were treated for 30 minutes with the indicated amount of Zeocin prior to high-speed CFP-RFP tracking microscopy. The recovery phase of H3-CFP tagged cells was 20 minutes after which they were treated with a pulse of Zeocin for 1 hour and H3-CFP fluorescence was followed for additional 40 minutes after treatment.
Live microscopy was done on a temperature controllable Olympus IX81 microscope with a Yokogawa CSU-X1 scanning head equipped with two EM-CCD EvolveDelta (Photometrics) cameras, an ASI MS-2000 Z-piezo stage and a PlanApo x100, NA 1.45 total internal reflection fluorescence microscope oil objective and Visiview software. For mRFP-GFP or mRFP-CFP high-speed tracking, fluorophores were excited with lasers at 561 nm (mCherry or mRFP) and 491 nm (GFP) or 440 nm (CFP) and emitted fluorescence was acquired simultaneously on separate cameras (Semrock FF01-617/73-25 filter for mCherry/mRFP and Semrock FF02-525/40-25 filter for GFP or Semrock FF01-475/42-25 for CFP). High-speed time-lapse series were conducted taking 8 optical slices per stack either every 80 ms for 1 min or 300 ms for 2 min, with 10 ms exposure times per slice respectively. Time-lapse image stacks were analyzed as in Dion et al. 9, using a custom made ImageJ (FIJI) plug-in36 to extract coordinates of locus position from the movies. Phototoxicity was tested by exposing wild-type cells (GA-6879) to standard imaging conditions and following outgrowth for 5 h by morphological analysis, comparing them with unexposed cells. […] Boxplot graphs were generated by plotting all measured distances of treated or untreated cells. […] For each frame, the distance vector of tracks in two channels was measured by selecting the two spots with minimal distance. […]

[4] = test system: histone H3/H4; test: Quantitative immunoblot analysis of histone H3/H4 loss and DDC activation; format: cell-based, Saccharomyces cerevisiae
Procedure: The total protein content in the relevant samples was determined with the Quant-iT protein assay kit (Thermo Scientific) and 8.75 μg of total protein was loaded and run on Criterion TGX Stain-Free 8-16% (Biorad) gels under SDS denaturing electrophoresis conditions. Rapid fluorescent detection of all proteins in the gel or on the membrane was done according to the manufacturer's specifications and protein transfer on PVDF membranes was performed using the Trans-Blot Turbo system. Rad53 protein was detected using a custom-made mouse monoclonal antibody (GenScript) against FHA2 domain of Rad53. Anti-yH2A was similarly a custom-made polyclonal antibody, that is specific for phospho-S129 in yeast H2A.

[5] = test system: chromatin fiber; test: 3D distance between two differentially labeled genomic loci (chromatin flexibility); format: cell-based, Saccharomyces cerevisiae; details: for average inter-spot distance between lacI-GFP and TetR-mRFP tagged loci after DNA damage: loci 320 kbp apart on Chr XIV
Source text: Live microscopy was done on a temperature controllable Olympus IX81 microscope with a Yokogawa CSU-X1 scanning head equipped with two EM-CCD EvolveDelta (Photometrics) cameras, an ASI MS-2000 Z-piezo stage and a PlanApo x100, NA 1.45 total internal reflection fluorescence microscope oil objective and Visiview software. For mRFP-GFP or mRFP-CFP high-speed tracking, fluorophores were excited with lasers at 561 nm (mCherry or mRFP) and 491 nm (GFP) or 440 nm (CFP) and emitted fluorescence was acquired simultaneously on separate cameras (Semrock FF01-617/73-25 filter for mCherry/mRFP and Semrock FF02-525/40-25 filter for GFP or Semrock FF01-475/42-25 for CFP). High-speed time-lapse series were conducted taking 8 optical slices per stack either every 80 ms for 1 min or 300 ms for 2 min, with 10 ms exposure times per slice respectively. Time-lapse image stacks were analyzed as in Dion et al. 9, using a custom made ImageJ (FIJI) plug-in36 to extract coordinates of locus position from the movies. Phototoxicity was tested by exposing wild-type cells (GA-6879) to standard imaging conditions and following outgrowth for 5 h by morphological analysis, comparing them with unexposed cells. Time-series acquired from Strains GA-9227 and GA-9777 (Two-spot data) were deconvolved using Huygens Remote Manager, channel-aligned and cropped to contain one single cell/nucleus with the two respective fluorescent spots. Spot tracking over time was done with the ImageJ plugin TrackMate included in Fiji37. Boxplot graphs were generated by plotting all measured distances of treated or untreated cells. Relative MSD analysis was performed with KNIME38. For each frame, the distance vector of tracks in two channels was measured by selecting the two spots with minimal distance. The inventors performed an MSD analysis on the distance vectors for all frames and tracks with a maximum MSD(t) value bigger than 10 μm^2 were considered as outliers (due to mis-matching two distant tracks) and removed from the analysis. Relative MSD vs. t was averaged over all tracks and plotted using R.

[6] = test system: nucleosome occupancy; test: Genome-wide nucleosome mapping (MNase-seq with Candida glabrata spike-in); format: cell-based, Saccharomyces cerevisiae; details: Zeocin 500 μg/ml for 1 hour; reads normalized to C. glabrata
Procedure: Strains tested for changes in nucleosome occupancy (GA-6879 and GA-8386) were grown in appropriate media to OD600=0.8. Cultures were split into two and one of them was treated with Zeocin (500 μg/ml) for 1 hour. At this point the OD600 absorbance of each sample was measured and Candida glabrata cells were spiked in to 1/10 according to the sample OD600. Cells were washed three times with ice cold TBS (20 MM Tris.HCl pH8.0 and 150 mM NaCl) and lysed by beat beating in MNase digestion buffer (10 mM Tris pH 8.0, 50 mM NaCl, 5 mM MgCl2, 1 mM CaCl2), 1 mM beta-mercaptoethanol, 0.5 mM spermidine, 0.075% NP40). The obtained chromatin samples were MNase digested to isolate mono-nucleosomes and sequencing libraries were prepared according to the method described in Wiechens, N. et al. (Wiechens et al. 2016). Paired end libraries of MNase digested chromatin were sequenced using Illumina HiSeq technology. Fastq files containing raw reads were aligned to the S. cerevisiae and C. glabrata reference genomes by Bowtie2 with option of maximum fragment length 500 for nucleosome fragments. The nucleosome dyads at each position were calculated in a defined window flanking the transcription start site (TSS). […] The reads were further normalized by dividing the fraction of C. glabrata reads in the sample. […]

[7] = test system: core histones H2A, H2B, H3 and H4; test: Quantitative SILAC mass spectrometry of histone abundance before and after Zeocin; format: cell-based, Saccharomyces cerevisiae; details: acute treatment (1 hour) with Zeocin
Procedure: For SILAC based mass spectrometry, lysine and arginine double labeling of the lys2A arg4A strain yAG-06A was achieved by growth for at least ten generations in “heavy” medium as described previously in Gruhler et al. 34. After growth to LOG phase or at G1 cell cycle arrest, “light” labeled cells (or “heavy” labeled cells for label-swap controls) were treated for 1 h with Zeocin and mixed 1:1 based on exact cell count with “heavy” labeled (“light” for label-swap control), non-treated control cells. Prior to mixing, FACS and Western blot samples were taken to test for cell cycle distribution and DDC activation.
Chromatin fractionation was performed as previously described with the modification that chromatin obtained from SILAC labeled yeast samples was resuspended in Urea Buffer (50 mM TRIS pH 7.5, 6 M Urea, 1% SDS, 5 mM EDTA) sonicated for optimal solubilizing of proteins followed by a TCA protein precipitation step prior to downstream mass spectrometric analysis. To avoid carbamylation in urea buffer, samples were kept below 20° C. and quickly processed. Control samples from whole cell extract (WCE), supernatant (SUP) and chromatin fraction (CHR) were analyzed with SDS-PAGE (Novex 8-16% Tris-Glycine Gel, Invitrogen) gel electrophoresis followed by Coomassie staining. […]

Row | Molecule | effect on DNA damage-induced H3 or H4 degradation [1] | decompaction of S phase chromatin (3D TetR-mCherry foci volumes) [2] | time of Zeocin exposure within which histone H3 degradation occurred ([3]; H3-CFP fluorescence) [min] | Histone H3 degradation compared to undamaged cells ([3]; H3-CFP fluorescence, within 30 minutes of Zeocin exposure) [%] | DSBs per genome generated ([3]; pulse-treated for 1 h with Zeocin) | histone depletion in histone-shutdown strain with constitutive H3/H4 expression ([4]; growth in media with low level galactose, compared with cells with endogenous histone genes) | DDC activation (yH2A signal) ([4]; quantitative immunoblot) | relationship between histone H3/H4 loss and Zeocin treatment ([4]; quantitative immunoblot) | average inter-spot distance between lacI-GFP and TetR-mRFP tagged loci after DNA damage ([5]; G1 cells, printed 0.97-1.2 (before-after)) [μm] | average inter-spot distance between lacI-GFP and TetR-mRFP tagged loci after DNA damage ([5]; S-phase cells, printed 0.99-1.12 (before-after)) [μm] | inter-spot dynamics and distances between CFP-lacI and TetR-mRFP tagged foci ([5]; loci 50 kbp apart on Chr III, real time) | nucleosome occupancy within promoters and across coding regions [6] | levels of the histone variant Htz1 (H2A.Z) [7] | loss of all core histones H2A, H2B, H3 and H4 (ratios of non-modified histone peptides, damage over control L/H) [7]
1 | CC(C)C[C@@H](C=O)NC(=O)[C@H](CC(C)C)NC(=O)[C@H](CC(C)C)NC(=O)OCc1ccccc1 [MG132] (Cbz-Leu-Leu-Leu-aldehyde) | suppressed |  |  |  |  |  |  |  |  |  |  |  |  | 
2 | Zeocin |  | dose-dependent decompaction | ≤ 30 | ~30 | 4-7 DSBs per genome | same depletion effect | robust DDC activation | dose-dependent relationship | 1.2 | 1.12 | robust increase | drop in nucleosome occupancy | remained stable | 20-40%
